How the values were obtained:
[1] = tested on: premenstrual syndrome (PMS) symptoms; assay: Case reports of subjects with premenstrual syndrome taking I3C capsules; type: in vivo, human
Method: Capsules containing 100 to 300 mg of 1H-indole-3-methanol (I3C™ from Designed Nutritional Products, Orem, Utah, U.S.) were made by placing that amount of 1H-indole-3-methanol into gelatin capsules. Capsules containing 200 mg of 1H-indole-3-methanol (I3C™ from Designed Nutritional Products, Orem, Utah, U.S.) were made by placing that amount of 1H-indole-3-methanol into gelatin capsules. Subject A, commonly suffered from fatigue, moodiness, and bluish circles beneath their eyes prior to menstruation. During menses, which typically lasted for 7-10 days, they experienced menstrual cramping which required ibuprofen for relief. Subject A had taken I3C™ for three menstrual cycles. […] Subject B had taken I3C™ for one menstrual cycle. Their PMS symptoms prior to taking I3C™ included extreme fatigue, frequent migraine headaches, bloating, moodiness, and severe menstrual cramps. They started taking I3C™ with no knowledge of its effects or benefits. […] Subject C had been diagnosed and treated for endometriosis. Their PMS symptoms included fatigue, heavy blood flow (menorrhagia), severe menstrual cramps, and menses of approximately 10 days. Subject C had taken I3C™ for six cycles. […] Subject D, had taken I3C™ for ½ months and noticed a rapid change in their PMS symptoms.

menopausal symptoms = assay: Case report of a subject with menopausal symptoms taking I3C capsules; type: in vivo, human; conditions: Subject E
Method: Capsules containing 100 to 300 mg of 1H-indole-3-methanol (I3C™ from Designed Nutritional Products, Orem, Utah, U.S.) were made by placing that amount of 1H-indole-3-methanol into gelatin capsules. […] After the hysterectomy, Subject E had menopausal symptoms including hot flashes, occasional sweating profusion, grogginess after a full night's sleep, and almost continuous irritable bowel syndrome. Subject E started taking four 100 mg capsules of I3C™ per day, two capsules in the morning and two capsules in the late afternoon. […] Their hot flashes and excessive sweating disappeared after taking a few doses of I3C™.

[2] = Reactivity/stability of 1H-indole-3-methanol in solvent, sunlight and heat (HPLC); type: physicochemical
Method: Relatively pure 1H-indole-3-methanol (I3C™ from Designed Nutritional Products, Orem, Utah, U.S.) in a water solution was prepared for HPLC analysis. One sample was diluted with water and the other was diluted with methanol. […] In the course of manufacturing and formulating dietary supplements containing 1H-indole-3-methanol, it was observed that the carbinol in the three position is extremely reactive. […] In the course of heating at 60° C., 99% of the present 1H-indole-3-methanol will disappear from HPLC chromatograms, being replaced by as many as 40 or 50 different derived compounds, virtually all of them identified as containing an indole component. More detailed studies have shown that one of the first compounds to appear in a sample of 1H-indole-3-methanol undergoing heat treatment is ([…], a “dimer” of 1H-indole-3-methanol.

[3] = Subject C, endometriosis, six cycles

1H-indole-3-methanol disappearing from HPLC chromatograms on heating ([2]; heating at 60° C.): 99%
stability in the presence of sunlight ([2]; sunlight): change color in just a few hours
HPLC peaks after dilution with methanol (reaction to methyl ether) ([2]; water solution diluted with methanol, by the time of injection): two peaks of about the same magnitude
HPLC peaks after dilution with water ([2]; water solution diluted with water): only one peak
Structure (SMILES): OCc1c[nH]c2ccccc12 [I3C™, 1H-indole-3-methanol]
PMS symptoms (fatigue, moodiness, bluish circles beneath eyes, menstrual cramping) ([1]; Subject A, I3C taken for three menstrual cycles): the above symptoms were alleviated
duration of menses ([1]; Subject A, three menstrual cycles, typically 7-10 days before): approximately 4 days
PMS symptoms (extreme fatigue, migraine headaches, bloating, moodiness, severe menstrual cramps) ([1]; Subject B, within one menstrual cycle): experienced only mild fatigue and their remaining symptoms were alleviated
fatigue ([1]; Subject C, endometriosis, I3C taken for six cycles): ceased
menstrual blood flow [1, 3]: decreased substantially
severity of menstrual cramps [1, 3]: decreased
PMS symptoms after starting I3C again ([1]; Subject C, restart after withdrawal): their symptoms were alleviated
duration of menses ([1]; Subject C, six cycles, approximately 10 days before): approximately 5 days
PMS symptoms after stopping I3C for one menstrual cycle ([1]; Subject C, withdrawal for one cycle): previous PMS symptoms returned
PMS symptoms (bloating, headaches) ([1]; Subject D, I3C taken for ½ months): less bloating and reduced headaches
bowel, sleep and energy symptoms (menopausal symptoms; four 100 mg capsules per day for one month): bowel regularity, less sleep disturbances, and a steady energy level throughout the day
hot flashes and excessive sweating (menopausal symptoms; partial hysterectomy, four 100 mg capsules per day, after a few doses): disappeared

Source: patent US6613792B1, “Treatment of premenstrual syndrome and menopause” (Designed Nutritional Products, Inc., priority 1999, dated 2003)
